Data reported in patent US12077503B2, “Substituted cyclic amides and their use as herbicides” (FMC CORPORATION, priority 2015, dated 2024).

Legend:
Format in all cases: in vivo
[1] = tested on: giant foxtail (Setaria faberii); experiment: Test A preemergence
How it was run: (§1)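 Compounds were formulated in a non-phytotoxic solvent mixture with surfactant and applied as a preemergence directed soil spray after seeding, or sprayed postemergence over plants 2 to 10 cm tall at the one- to two-leaf stage. Evaluation after about 10 d compared treated with untreated controls, using a scale from 0 (no effect) to 100 (complete control).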

[2] = tested on: barnyardgrass (Echinochloa crus-galli); experiment: Test A preemergence
How it was run: as §1

[3] = tested on: ryegrass, Italian (Italian ryegrass, Lolium multiflorum); experiment: Test A preemergence
How it was run: as §1

[4] = tested on: ragweed (common ragweed, Ambrosia elatior); experiment: Test A preemergence
How it was run: as §1

[5] = tested on: Kochia (Kochia scoparia); experiment: Test A preemergence
How it was run: as §1

[6] = tested on: pigweed (Amaranthus retroflexus); experiment: Test A preemergence
[7] = tested on: barnyardgrass (Echinochloa crus-galli); experiment: Test B flooded paddy test; settings: Flood, 250 g ai/ha; for Plant response rating, Barnyardgrass: 0 to 100 scale where 0 is no effect and 100 is complete control, 13 to 15 d
How it was run: (§2)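 2-leaf plants; pots flooded 3 cm over soil; cpd added to paddy water; depth held; greenhouse 13–15 d; visual rating vs controls, 0 = no effect, 100 = complete control.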

[8] = tested on: sedge, umbrella (small-flower umbrella sedge, Cyperus difformis); experiment: Test B flooded paddy test; settings: Flood, 250 g ai/ha; for Plant response rating, Sedge, Umbrella: 0 to 100 scale where 0 is no effect and 100 is complete control, 13 to 15 d
How it was run: as §2

[9] = tested on: rice (Oryra sativa); experiment: Test B flooded paddy test; settings: Flood, 250 g ai/ha; for Plant response rating, Rice: 0 to 100 scale where 0 is no effect and 100 is complete control, 13 to 15 d
How it was run: as §2

[10] = tested on: ducksalad (Heteranthera limosa); experiment: Test B flooded paddy test; settings: Flood, 250 g ai/ha; for Plant response rating, Ducksalad: 0 to 100 scale where 0 is no effect and 100 is complete control, 13 to 15 d
How it was run: as §2

[11] = tested on: giant foxtail (Setaria faberii); experiment: Test A postemergence
How it was run: as §1

[12] = tested on: barnyardgrass (Echinochloa crus-galli); experiment: Test A postemergence; settings: postemergence
How it was run: as §1

[13] = tested on: ryegrass, Italian (Italian ryegrass, Lolium multiflorum); experiment: Test A postemergence
How it was run: as §1

[14] = tested on: blackgrass (Alopecurus myosuroides); experiment: Test A postemergence; settings: postemergence
How it was run: as §1

[15] = tested on: Galium (catchweed bedstraw, Galium aparine); experiment: Test A postemergence
How it was run: as §1

[16] = tested on: ragweed (common ragweed, Ambrosia elatior); experiment: Test A postemergence
How it was run: as §1

[17] = tested on: Kochia (Kochia scoparia); experiment: Test A postemergence
How it was run: as §1

[18] = tested on: pigweed (Amaranthus retroflexus); experiment: Test A postemergence
How it was run: as §1

[19] = tested on: wheat (Triticum aestivum); experiment: Test A postemergence
How it was run: as §1

[20] = tested on: corn (Zea mays); experiment: Test A postemergence; settings: postemergence
How it was run: as §1

[21] = 125 g ai/ha, preemergence, 0 to 100 scale (0 no effect, 100 complete control)
[22] = Preemergence, 500 g ai/ha, visual injury approx. 10 d
[23] = 125 g ai/ha, Preemergence, visual injury after approximately 10 d, 0 to 100 scale where 0 is no effect and 100 is complete control
[24] = 125 g ai/ha, postemergence, visual injury rating on 0 to 100 scale (0 no effect, 100 complete control), approx. 10 d
[25] = Postemergence, 500 g ai/ha, 0 to 100 scale where 0 is no effect and 100 is complete control
[26] = 125 g ai/ha, visual injury rating on 0 to 100 scale (0 no effect, 100 complete control), approx. 10 d
[27] = 500 g ai/ha, 0 to 100 scale, 0 no effect, 100 complete control
[28] = 500 g ai/ha, preemergence, 0 to 100 scale, 0 = no effect, 100 = complete control
[29] = 125 g ai/ha, preemergence, visual rating after approx. 10 d, 0 to 100 scale where 0 is no effect and 100 is complete control
[30] = 125 g ai/ha, postemergence, visual injury after approximately 10 d, 0 to 100 scale (0 no effect, 100 complete control)
[31] = 500 g ai/ha, postemergence, visual injury, 0 to 100 scale (0 no effect, 100 complete control), approx. 10 d
[32] = 125 g ai/ha, visual rating after approx. 10 d, 0 to 100 scale (0 no effect, 100 complete control)
[33] = 500 g ai/ha, visual injury, 0 to 100 scale (0 no effect, 100 complete control), approx. 10 d

CCc1ccc(C2CNC(=O)C2C(=O)Nc2cccc(F)c2F)cc1 (centres unmarked) [Compound 467]
Plant response rating, Foxtail, Giant [1, 21]: 90 | Foxtail, Giant plant response rating (0 to 100 scale, 0 is no effect, 100 is complete control) [1, 22]: 100 | Plant response rating, Barnyardgrass [2, 21]: 90 | Barnyardgrass plant response rating (0 to 100 scale, 0 is no effect, 100 is complete control) [2, 22]: 90 | Plant response rating, Ryegrass, Italian [3, 23]: 0 | Ryegrass, Italian plant response rating (0 to 100 scale, 0 is no effect, 100 is complete control) [3, 22]: 20 | Plant response rating, Ragweed [4, 23]: 30 | Ragweed plant response rating (0 to 100 scale, 0 is no effect, 100 is complete control) [4, 22]: 70 | Plant response rating, Kochia [5, 21]: 30 | Kochia plant response rating (0 to 100 scale, 0 is no effect, 100 is complete control) [5, 22]: 50 | Plant response rating, Pigweed [6, 23]: 0 | Pigweed plant response rating (0 to 100 scale, 0 is no effect, 100 is complete control) [6, 22]: 0 | Plant response rating, Barnyardgrass [7]: 20 | Plant response rating, Sedge, Umbrella [8]: 0 | Plant response rating, Rice [9]: 0 | Plant response rating, Ducksalad [10]: 80 | Foxtail, Giant plant response rating [11, 24]: 40 | Plant response rating, Foxtail, Giant [11, 25]: 80 | Barnyardgrass plant response rating [12, 26]: 80 | Plant response rating, Barnyardgrass [12, 27]: 90 | Ryegrass, Italian plant response rating [13, 24]: 0 | Plant response rating, Ryegrass, Italian [13, 25]: 40 | Blackgrass plant response rating [14, 26]: 0 | Plant response rating, Blackgrass [14, 27]: 0 | Galium plant response rating [15, 24]: 0 | Plant response rating, Galium [15, 25]: 0 | Ragweed plant response rating [16, 24]: 0 | Plant response rating, Ragweed [16, 25]: 20 | Kochia plant response rating [17, 24]: 0 | Plant response rating, Kochia [17, 25]: 0 | Pigweed plant response rating [18, 24]: 0 | Plant response rating, Pigweed [18, 25]: 0 | Wheat plant response rating [19, 24]: 0 | Plant response rating, Wheat [19, 25]: 30 | Corn plant response rating [20, 26]: 0 | Plant response rating, Corn [20, 27]: 20

O=C1NCC(c2cccc(Br)c2)C1C(=O)Nc1ccccc1F (racemic) [Compound 686]
Plant response rating, Foxtail, Giant [1, 23]: 90 | Plant response rating, Foxtail, Giant [1, 28]: 90 | Plant response rating, Barnyardgrass [2, 23]: 90 | Plant response rating, Barnyardgrass [2, 28]: 90 | Plant response rating, Ryegrass, Italian [3, 29]: 0 | Plant response rating, Ryegrass, Italian [3, 28]: 20 | Plant response rating, Ragweed [4, 29]: 0 | Plant response rating, Ragweed [4, 28]: 0 | Plant response rating, Kochia [5, 23]: 0 | Plant response rating, Kochia [5, 28]: 40 | Plant response rating, Pigweed [6, 29]: 0 | Plant response rating, Pigweed [6, 28]: 20 | Plant response rating, Barnyardgrass [7]: 35 | Plant response rating, Sedge, Umbrella [8]: 0 | Plant response rating, Rice [9]: 0 | Plant response rating, Ducksalad [10]: 90 | Plant response rating, Foxtail, Giant [11, 30]: 80 | Plant response rating, Foxtail, Giant [11, 31]: 90 | Plant response rating, Barnyardgrass [12, 32]: 90 | Plant response rating, Barnyardgrass [12, 33]: 90 | Plant response rating, Ryegrass, Italian [13, 30]: 20 | Plant response rating, Ryegrass, Italian [13, 31]: 40 | Plant response rating, Blackgrass [14, 32]: 20 | Plant response rating, Blackgrass [14, 33]: 40 | Plant response rating, Galium [15, 30]: 0 | Plant response rating, Galium [15, 31]: 20 | Plant response rating, Ragweed [16, 30]: 20 | Plant response rating, Ragweed [16, 31]: 20 | Plant response rating, Kochia [17, 30]: 0 | Plant response rating, Kochia [17, 31]: 30 | Plant response rating, Pigweed [18, 30]: 0 | Plant response rating, Pigweed [18, 31]: 20 | Plant response rating, Wheat [19, 30]: 0 | Plant response rating, Wheat [19, 31]: 30 | Plant response rating, Corn ([20]; 125 g ai/ha, visual injury after approximately 10 d, 0 to 100 scale (0 no effect, 100 complete control)): 0 | Plant response rating, Corn [20, 33]: 50

CN1C[C@H](c2cccc(OC(F)(F)C(F)F)c2)[C@@H](C(=O)Nc2ccccc2[S+](C)[O-])C1=O (some centres unmarked) [Compound 863]
pest or weed control at 125 g/ha ([1]; Setaria faberi, pre-emergence, 240 h, 125 g ai/ha, preemergence, 0 to 100 scale where 0 is no effect and 100 is complete control, read-out: Foxtail, Giant plant response rating): 90% | pest or weed control at 125 g/ha ([2]; Echinochloa crus-galli, pre-emergence, 240 h, 125 g ai/ha, preemergence, 0 to 100 scale where 0 is no effect and 100 is complete control, read-out: Barnyardgrass plant response rating): 50% | pest or weed control at 125 g/ha ([3]; Lolium multiflorum, pre-emergence, 240 h, 125 g ai/ha, preemergence, 0 to 100 scale where 0 is no effect and 100 is complete control, read-out: Ryegrass, Italian plant response rating): 0% | pest or weed control at 125 g/ha ([4]; Ambrosia artemisiifolia, pre-emergence, 240 h, 125 g ai/ha, preemergence, 0 to 100 scale where 0 is no effect and 100 is complete control, read-out: Ragweed plant response rating): 0% | pest or weed control at 125 g/ha ([5]; Bassia scoparia, pre-emergence, 240 h, 125 g ai/ha, preemergence, 0 to 100 scale where 0 is no effect and 100 is complete control, read-out: Kochia plant response rating): 80% | pest or weed control at 125 g/ha ([6]; Amaranthus retroflexus, pre-emergence, 240 h, 125 g ai/ha, preemergence, 0 to 100 scale where 0 is no effect and 100 is complete control, read-out: Pigweed plant response rating): 70% | pest or weed control at 250 g/ha ([7]; Echinochloa crus-galli, scale of 0 to 100 where 0 is no effect and 100 is complete control, read-out: Barnyardgrass plant response rating): 0% | pest or weed control at 250 g/ha ([8]; Cyperus difformis, scale of 0 to 100 where 0 is no effect and 100 is complete control, read-out: Sedge, Umbrella plant response rating): 0% | pest or weed control at 250 g/ha ([9]; Oryza sativa, scale of 0 to 100 where 0 is no effect and 100 is complete control, read-out: Rice plant response rating): 0% | pest or weed control at 250 g/ha ([10]; Heteranthera limosa, scale of 0 to 100 where 0 is no effect and 100 is complete control, read-out: Ducksalad plant response rating): 0% | pest or weed control at 125 g/ha ([11]; Setaria faberi, post-emergence, 240 h, 125 g ai/ha, postemergence, visual injury rating after approximately 10 d, read-out: Foxtail, Giant plant response rating (0 to 100 scale, 0 no effect, 100 complete control)): 20% | pest or weed control at 125 g/ha ([12]; Echinochloa crus-galli, post-emergence, 240 h, 125 g ai/ha, visual injury rating after approximately 10 d, read-out: Barnyardgrass plant response rating (0 to 100 scale, 0 no effect, 100 complete control)): 70% | pest or weed control at 125 g/ha ([13]; Lolium multiflorum, post-emergence, 240 h, 125 g ai/ha, postemergence, visual injury rating after approximately 10 d, read-out: Ryegrass, Italian plant response rating (0 to 100 scale, 0 no effect, 100 complete control)): 0% | pest or weed control at 125 g/ha ([14]; Alopecurus myosuroides, post-emergence, 240 h, 125 g ai/ha, visual injury rating after approximately 10 d, read-out: Blackgrass plant response rating (0 to 100 scale, 0 no effect, 100 complete control)): 0% | pest or weed control at 125 g/ha ([15]; Galium, post-emergence, 240 h, 125 g ai/ha, postemergence, visual injury rating after approximately 10 d, read-out: Galium plant response rating (0 to 100 scale, 0 no effect, 100 complete control)): 30% | pest or weed control at 125 g/ha ([16]; Ambrosia artemisiifolia, post-emergence, 240 h, 125 g ai/ha, postemergence, visual injury rating after approximately 10 d, read-out: Ragweed plant response rating (0 to 100 scale, 0 no effect, 100 complete control)): 0% | pest or weed control at 125 g/ha ([17]; Bassia scoparia, post-emergence, 240 h, 125 g ai/ha, postemergence, visual injury rating after approximately 10 d, read-out: Kochia plant response rating (0 to 100 scale, 0 no effect, 100 complete control)): 40% | pest or weed control at 125 g/ha ([18]; Amaranthus retroflexus, post-emergence, 240 h, 125 g ai/ha, postemergence, visual injury rating after approximately 10 d, read-out: Pigweed plant response rating (0 to 100 scale, 0 no effect, 100 complete control)): 50% | plant injury at 125 g/ha ([19]; Triticum aestivum, post-emergence, 240 h, 125 g ai/ha, postemergence, visual injury rating after approximately 10 d, read-out: Wheat plant response rating (0 to 100 scale, 0 no effect, 100 complete control)): 0% | plant injury at 125 g/ha ([20]; Zea mays, post-emergence, 240 h, 125 g ai/ha, visual injury rating after approximately 10 d, read-out: Corn plant response rating (0 to 100 scale, 0 no effect, 100 complete control)): 30%
